Experiments:
[1] = target: recombinant human baculovirus-expressed AXL (Homo sapiens (Human), UniProt P30530); experiment: AXL kinase assay (HTRF KinEASE); assay type: biochemical; conditions: average of two or more determinations
[2] = target: recombinant human baculovirus-expressed cMET (Homo sapiens (Human), UniProt P08581); experiment: c-MET kinase assay (HTRF KinEASE); assay type: biochemical; conditions: average of two or more determinations; read-out: c-MET IC50

Structure (SMILES): CCn1cc(C(=O)Nc2ccc(Oc3cc(NC(=O)OC)cn4nccc34)c(F)c2)c(=O)n(-c2ccc(F)cc2)c1=O [Example 148, [4-(4-{[1-Ethyl-3-(4-fluoro-phenyl)-2,4-dioxo-1,2,3,4-tetrahydro-pyrimidine-5-carbonyl]-amino}-2-fluoro-phenoxy)-pyrazolo[1,5-a]pyridin-6-yl]-carbamic acid methyl ester]
- IC50 [1]: < 10 nM
- IC50 [2]: 10 to 100 nM

Structure (SMILES): COC(=O)Nc1cc(Oc2ccc(NC(=O)c3cn(C(C)C)c(=O)n(-c4ccc(F)cc4)c3=O)cc2F)c2ccnn2c1 [Example 149, [4-(2-Fluoro-4-{[3-(4-fluoro-phenyl)-1-isopropyl-2,4-dioxo-1,2,3,4-tetrahydro-pyrimidine-5-carbonyl]-amino}-phenoxy)-pyrazolo[1,5-a]pyridin-6-yl]-carbamic acid methyl ester]
- IC50 [1]: < 10 nM
- IC50 [2]: 10 to 100 nM
